Consider six molecules from US20250295815A1, “PORPHYRIN-HYDROPORPHYRIN COMPOUNDS, COMPOSITIONS COMPRISING THE SAME AND METHODS OF USE THEREOF” (North Carolina State University, priority 2021, published 2025).

Molecules are shown by their SMILES.

What all share (assay type): physicochemical
The nature of data set [1]: Fluorescence emission spectra in toluene (FIG. 5-8). As to conditions: for Brightness (molar absorption coefficient×fluorescence quantum yield): in M⁻¹cm⁻¹; for residual porphyrin emission in fluorescence spectrum: toluene, room temperature, FIG. 5, FIG. 6. Here is the method: Emission spectra were collected in toluene at room temperature. […] P5-C3 contains a more rigid linker between chlorin and porphyrin than in P3-C1, which results in greater spatial separation of the two components and lower energy transfer.
Brightness (molar absorption coefficient×fluorescence quantum yield): 84,700 (P3-C1), 13,900 (P5-C3).
Emission spectra were collected using 0.5 uM solutions in toluene. Brightness (molar absorption coefficient×fluorescence quantum yield): 19,900 (P11-BC3 meso), 45,100 (P11-BC1 beta).

Data set [2] is described as follows: Dyad photophysical properties in toluene, excited at 405 nm. Further details: ext coeff (abs max B) / brightness (abs max): unit not given here. Conditions: for ext coeff (405 nm) / brightness (405 nm): at 405 nm; for ext coeff (405 nm) / QY (x405) / abs max B / abs max Qx / abs max Qy / ext coeff (abs max B) / em max / FWHM: room temperature; for ext coeff (405 nm): in M-1 cm-1 (unit assumed); for QY (x405): fluorescence quantum yield; for QY (x405) / em max / FWHM: excited at 405 nm; for brightness (405 nm) / brightness (abs max): molar absorption coefficient x fluorescence quantum yield; for brightness (405 nm): in M⁻¹cm⁻¹; for brightness (abs max): at abs max; for FWHM: emission peak. The protocol: (§1) The photophysical properties of samples were tested in toluene at room temperature and excited at 405 nm.

Data set [3] can be described thus: Comparison porphyrin photophysical properties in toluene, excited at 405 nm. As to conditions: for ext coeff (405 nm) / brightness (405 nm): at 405 nm; for ext coeff (405 nm) / QY (x405) / abs max B / abs max Qx / em max / ext coeff (abs): room temperature; for ext coeff (405 nm) / ext coeff (abs): in M-1 cm-1 (unit assumed); for QY (x405): fluorescence quantum yield; for QY (x405) / em max: excited at 405 nm; for brightness (405 nm) / brightness (abs max): molar absorption coefficient x fluorescence quantum yield; for brightness (405 nm): in M⁻¹cm⁻¹; for brightness (abs max): at abs max. The protocol: as §1

Data set [4] is described as follows: Brightness of hydroporphyrin monomers vs. porphyrin-hydroporphyrin dyads at 405 nm excitation. Conditions: for fold change: brightness of dyad vs. corresponding hydroporphyrin monomer, 405 nm; for FWHM: emission peak narrowness; for QY (x405): fluorescence quantum yield in toluene at room temperature; for ext coeff (405 nm): molar absorption coefficient at 405 nm, in M-1 cm-1 (unit assumed); for brightness (405 nm): product of molar absorption coefficient at 405 nm and fluorescence quantum yield, in M⁻¹cm⁻¹; for brightness (405 nm) / abs max B / em max: toluene, room temperature. Here is the method: Brightness was calculated using an excitation wavelength of 405 nm for a hydroporphyrin monomer having an emission wavelength of approximately 660, 680, 715, or 800 nm and for a fluorescent compound including a porphyrin and a hydroporphyrin structurally similar to the hydroporphyrin monomer. Brightness was calculated as the product of the molar absorption coefficient at 405 nm and the fluorescence quantum yield in toluene at room temperature. Table 3 provides the emission wavelength of the hydroporphyrin monomer and the corresponding dyad, the brightness of the hydroporphyrin monomer excited at 405 nm, the brightness of the dyad excited at 405 nm, and the fold change in brightness of the hydroporphyrin monomer compared to the brightness of the dyad.

Where [5] appears, read: FIG. 7, same sample concentration.

For the molecule `COC(=O)c1ccc(-c2c3nc(cc4ccc(cc5nc(cc6[nH]c2cc6C#Cc2ccc(CNC(=O)c6ccc(-c7c8nc(cc9ccc([nH]9)c(-c9c(C)cc(C)cc9C)c9nc(cc%10ccc7[nH]%10)C=C9)C=C8)cc6)cc2)CC5(C)C)[nH]4)C=C3)cc1` [Dyad P5-C3], in data set [1] (setting [5]), the “Brightness (molar absorption coefficient×fluorescence quantum yield)” value is on record as 13,900. Further, the “residual porphyrin emission in fluorescence spectrum” value in data set [1] is on record as “porphyrin emission is apparent”. In data set [2], the “ext coeff (405 nm)” value was 171,800, the “QY (x405)” value is recorded as 0.08, the “brightness (405 nm)” value was 13,934 and the “brightness (abs max)” value is listed as 17,413. In data set [2], the “abs max B” value was 409 nm, the “abs max Qx” value is listed as 504 nm, the “abs max Qy” value turned out to be 657 nm and the “ext coeff (abs max B)” value was 214,700. Besides, the em max in data set [2] came to 659 nm.
In the case of `COC(=O)c1ccc(-c2c3nc(cc4[nH]c(cc5nc(cc6[nH]c2cc6-c2ccc(CNC(=O)c6ccc(-c7c8nc(cc9ccc([nH]9)c(-c9c(C)cc(C)cc9C)c9nc(cc%10ccc7[nH]%10)C=C9)C=C8)cc6)cc2)CC5(C)C)cc4-c2ccccc2)C=C3)cc1` [Dyad P3-C1], the “Brightness (molar absorption coefficient×fluorescence quantum yield)” value in data set [1] (setting [5]) is 84,700. In addition, the “residual porphyrin emission in fluorescence spectrum” value in data set [1] was “no residual emission from the porphyrin”. In data set [2], the “ext coeff (405 nm)” value is reported as 350,200, the FWHM is 18 nm, the “QY (x405)” value is recorded as 0.24 and the “brightness (405 nm)” value is 84,723. In data set [2], the “brightness (abs max)” value is 106,623, the “abs max B” value is reported as 410 nm, the “abs max Qx” value is 505 nm and the “abs max Qy” value amounted to 652 nm. Besides, in data set [2], the “ext coeff (abs max B)” value is on record as 440,633 and the em max is recorded as 656 nm.
Regarding `Cc1cc(C)c(-c2c3nc(cc4ccc([nH]4)c(-c4ccc(C(=O)NCc5ccc(B6OC(C)(C)C(C)(C)O6)cc5)cc4)c4nc(cc5ccc2[nH]5)C=C4)C=C3)c(C)c1` [Dyad P3], in data set [3], the “ext coeff (405 nm)” value is given as 234,100, the “QY (x405)” value is 0.04, the “brightness (405 nm)” value is recorded as 9,628 and the “brightness (abs max)” value is recorded as 12,560. Moreover, in data set [3], the “abs max B” value came to 409 nm, the “abs max Qx” value is listed as 503 nm, the em max is 702 nm and the “ext coeff (abs)” value is 305,400.
`COC(=O)c1ccc(-c2c3nc(cc4[nH]c(cc5nc(cc6[nH]c2cc6C#Cc2ccc(-c6c7nc(cc8ccc(cc9nc(cc%10ccc6[nH]%10)C=C9)[nH]8)C=C7)cc2)CC5(C)C)cc4C#Cc2ccc(-c4c5nc(cc6ccc(cc7nc(cc8ccc4[nH]8)C=C7)[nH]6)C=C5)cc2)C=C3)cc1` [Dyad P1-C6]: in data set [4], the fold change is listed as 6.4, the FWHM was determined as 17 nm, the “QY (x405)” value is on record as 0.34 and the “ext coeff (405 nm)” value is recorded as 238,800. In data set [4], the “brightness (405 nm)” value is given as 80,567, the “abs max B” value is given as 406 nm and the em max was found to be 682 nm. In addition, in data set [2], the “ext coeff (405 nm)” value was 238,800, the FWHM was found to be 17 nm, the “QY (x405)” value is reported as 0.34 and the “brightness (405 nm)” value is recorded as 80,567. Also, in data set [2], the “brightness (abs max)” value is 81,579, the “abs max B” value is on record as 406 nm, the “abs max Qx” value was 499 nm and the “abs max Qy” value came to 680 nm. In data set [2], the “ext coeff (abs max B)” value is 241,800 and the em max turned out to be 682 nm.
With `COc1c2nc(cc3ccc([nH]3)c(-c3ccc(-c4c5nc(cc6ccc(cc7nc(cc8ccc4[nH]8)C=C7)[nH]6)C=C5)cc3)c3nc(cc4ccc1[nH]4)C(C)(C)C3)C(C)(C)C2` [Dyad P11-BC3], in data set [1] (FIG. 8, 0.5 uM solutions in toluene, meso vs. beta linkage), the “Brightness (molar absorption coefficient×fluorescence quantum yield)” value is reported as 19,900. In data set [4], the fold change was found to be 64.9, the FWHM worked out at 15 nm, the “QY (x405)” value is given as 0.17 and the “ext coeff (405 nm)” value is recorded as 118,100. Moreover, in data set [4], the “brightness (405 nm)” value is listed as 19,871, the “abs max B” value came out at 407 nm and the em max stood at 714 nm. Further, in data set [2], the “ext coeff (405 nm)” value was 118,100, the FWHM came out at 15 nm, the “QY (x405)” value was 0.17 and the “brightness (405 nm)” value is 19,871. For the same molecule, in data set [2], the “brightness (abs max)” value is reported as 20,998, the “abs max B” value came out at 407 nm, the “abs max Qx” value was determined as 511 nm and the “abs max Qy” value is reported as 714 nm. In addition, in data set [2], the “ext coeff (abs max B)” value is recorded as 124,800 and the em max was found to be 714 nm.
`CC1(C)OB(c2ccc(CNC(=O)c3ccc(C4=C5C=CC(=N5)C=c5ccc6[n]5[Zn][n]5c(ccc54)C=C4C=CC(=N4)C=6)cc3)cc2)OC1(C)C` [Dyad P2]: in data set [3], the “ext coeff (405 nm)” value is reported as 209,100, the “QY (x405)” value worked out at 0.03, the “brightness (405 nm)” value is reported as 5,899 and the “brightness (abs max)” value is listed as 6,466. Further, in data set [3], the “abs max B” value is reported as 407 nm, the “abs max Qx” value was found to be 533 nm, the em max is reported as 623 nm and the “ext coeff (abs)” value is 229,200.
